Reference: patent US4292321A, “1,3,8-Triazaspirodecane-4-ones, pharmaceutical compositions thereof and method of use thereof” (Warner-Lambert Company, priority 1980, dated 1981)
Like-named read-outs stand apart in the source and are kept apart here.

Target: T1, dopamine receptor (Bos taurus, UniProt P20288)
T1 construct: from tissue
Assay: 3H-haloperidol receptor binding assay (HRBA)
Conditions: for inhibition at 0.1 µM / inhibition at 0.01 µM: read-out: inhibition of 3H-haloperidol binding
From the text: The compounds of this invention are useful because of their valuable pharmacological properties. […] As with other known neuroleptics, the compounds of this invention readily displace ^3 H-haloperidol from dopamine receptor binding sights in the ^3 H-haloperidol receptor binding assay (HRBA). […] The HRBA screen is described by I. Creese, D. R. Burt and S. H. Snyder, Science 142: 480 (1976) and by B. Seeman, T. Lee, M. Chani-Wong and K. Wong, Nature 261: 717 […].

T1 sequence (P20288 whole entry): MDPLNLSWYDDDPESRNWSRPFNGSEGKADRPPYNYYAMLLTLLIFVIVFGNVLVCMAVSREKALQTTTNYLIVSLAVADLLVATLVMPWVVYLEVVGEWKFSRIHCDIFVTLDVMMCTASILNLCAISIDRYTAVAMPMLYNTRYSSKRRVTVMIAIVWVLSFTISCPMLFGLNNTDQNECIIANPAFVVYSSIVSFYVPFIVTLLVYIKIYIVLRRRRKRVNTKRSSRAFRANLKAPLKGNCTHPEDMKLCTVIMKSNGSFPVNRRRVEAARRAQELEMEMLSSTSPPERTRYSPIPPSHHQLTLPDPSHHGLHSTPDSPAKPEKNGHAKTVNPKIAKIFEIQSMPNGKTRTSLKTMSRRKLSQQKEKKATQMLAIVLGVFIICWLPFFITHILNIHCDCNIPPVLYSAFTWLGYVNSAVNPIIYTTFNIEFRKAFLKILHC

inhibition at 0.01 µM (10 n moles concentration) | inhibition at 0.1 µM (100 n moles concentration) | Compound | inhibition of 3H-haloperidol binding (10 n moles concentration) | inhibition at 0.1 µM | inhibition at 0.01 µM
– | – | Fc1cccc(C2=CCN(CCCN(c3ccccc3)c3ccccc3)CC2)c1.O=C(O)C(=O)O [Example 40, 4-(3-Fluorophenyl)-1,2,3,6-tetrahydro-N,N-diphenyl-1-pyridinepropanamine ethanedioate] | no inhibition | ~23% | –
~25% | ~84% | Cc1cccc(C2CCN(CCCN(c3ccccc3)c3ccccc3)CC2)c1 [Example 41, N,N-diphenyl-4-[3-methylphenyl]-1-piperidinepropanamine butenedioate] | – | – | –
– | – | Fc1ccc(NC2CCN(CCCN(c3ccccc3)c3ccccc3)CC2)cc1 [Example 42, 4-[(4-Fluorophenyl)amino]-N,N-diphenyl-1-piperidinepropanamine ethanedioate] | – | ~90% | ~26%
– | ~18% | OC(c1ccccc1)C1CCN(CCCN(c2ccccc2)c2ccccc2)CC1 (stereo not drawn) [Example 43, 1-[3-(Diphenylamino)propyl]-alpha-phenyl-4-piperidine methanol.] | no inhibition | – | –
– | – | O=C(c1ccc(Cl)cc1)C1CCN(CCCN(c2ccc(F)cc2)c2ccc(F)cc2)CC1 [Example 44, [1-[3-[Bis(4-fluorophenyl)amino]propyl]-4-piperidinyl]-(4-chlorophenyl)methanone ethanedioate] | – | ~69% | ~8%
~10% | ~26% | c1ccc(N(CCCN2CCC3(CC2)OCCO3)c2ccccc2)cc1 [Example 45, N,N-diphenyl-1,4-dioxo-8-azaspiro[4,5]decane-8-propanamine ethanedioate.] | – | – | –
~3% | ~12% | c1ccc(N(CCCNC2=NC3CCC2CC3)c2ccccc2)cc1 [Example 46, N'-2-azabicyclo[2,2,2]-oct-2-en-3-yl-N,N-diphenyl-1,3-propanediamine] | – | – | –
